The text below walks through data of ChEMBL document CHEMBL1201862, “PubChem BioAssay data set” (2004).

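Each compound was tested at five concentrations against cells in 96-well plates for 48 hours. GI50: concentration for 50% inhibition of growth.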 Calls of active or inactive are those of the source. No stated cut-off is given here; in the data, active = GI50 up to about 1.1 µM and inactive = higher.

Assay in all cases: growth of human tumour cells (NCI), 48 h
Test [1] deals with U-251.
Test [2] has as its system UACC-257.
Test [3] deals with SF-268.
The subject of test [4] is K562.
The subject of test [5] is RXF 393.
Test [6] concerns HOP-62.
Test [7] has as its system MDA-MB-231.
Test [8] has as its system SNB-75.
Test [9] concerns SK-MEL-28.
Test [10] concerns UO-31.
The test system of test [11] is HCC 2998.
Test [12] concerns M14.
Test [13] deals with NCI-H460.
The test system of test [14] is SF-539.
In test [15] the test system is NCI-H23.
Test [16] deals with OVCAR-4.
Test [17] concerns SN12C.
Test [18] has as its system BT-549.
In test [19] the test system is SR.
In test [20] the test system is MDA-N.

Take `N=c1oc2cc(O)ccc2cc1C(=O)Nc1ccccn1`: the GI50 in test [1] is 44.5 µM (inactive); in test [2] it was > 100 µM (inactive); in test [3], 65.2 µM (inactive); in [4], 26.5 µM (inactive); in [5], 26.6 µM (inactive); in test [6], > 100 µM (inactive). The GI50 was 54.3 µM (inactive) in [7]; 36.5 µM (inactive) in test [8]; 76.7 µM (inactive) in test [9]; 0.292 µM (active) in [10]; 34.3 µM (inactive) in test [11]; 59.7 µM (inactive) in [12]. Also, the GI50 in [13] was 62.8 µM (inactive); in [14], 92.9 µM (inactive); in test [15], 80.9 µM (inactive); in test [16], 33 µM (inactive); in test [17] it was 62.2 µM (inactive); in [18], 73.6 µM (inactive).

For `O=C1NC(=N/c2ccccc2)/C(=N\c2ccccc2)N1c1ccccc1`, the GI50 is 15.6 µM (inactive) in test [1]; 15.8 µM (inactive) in [2]; 17.9 µM (inactive) in test [3]; 26.5 µM (inactive) in test [4]; 15 µM (inactive) in [5]; 18.5 µM (inactive) in test [6]. Moreover, the GI50 is 20.8 µM (inactive) in test [7]; 16.3 µM (inactive) in test [8]; 14.8 µM (inactive) in test [9]; 16.5 µM (inactive) in test [10]; 16.9 µM (inactive) in test [11]; 16.5 µM (inactive) in test [13]. The GI50 was 20 µM (inactive) in [19]; 12.3 µM (inactive) in [20]; 17.4 µM (inactive) in test [14]; 16.7 µM (inactive) in test [15]; 18.4 µM (inactive) in [16]; 16.4 µM (inactive) in test [17].

For `O=C(/C=C/c1ccccc1)CCC1C(=O)NC(=S)NC1=O`, the GI50 in [1], in [2], in [3], in [4], in test [5] and in test [7] was > 100 µM (inactive) each time. Besides, the GI50 in test [9], in test [10], in test [11], in test [12], in test [13] and in test [14] was > 100 µM (inactive) throughout. Also, the GI50 in test [15], in [17] and in [18] was > 100 µM (inactive) in each case.

With `CCCCCCC(=O)OC[n+]1ccc(-c2c(COC(=O)NC(C)C)c(COC(=O)NC(C)C)c3n2CCC3)cc1`, the GI50 in test [1] is > 80.4 µM (inactive); in test [2], > 100 µM (inactive); in [3] it was 48.6 µM (inactive); in test [4], > 100 µM (inactive); in [5], > 65.8 µM (inactive); in test [6] it was > 64.3 µM (inactive). Also, the GI50 in test [7] is > 71.3 µM (inactive); in test [8], > 68.1 µM (inactive); in test [9], > 100 µM (inactive); in test [10], > 100 µM (inactive); in [11], > 100 µM (inactive); in [12], > 87.9 µM (inactive). In addition, the GI50 was 35.6 µM (inactive) in test [13]; 10 µM (inactive) in [19]; 45.1 µM (inactive) in test [14]; 48.9 µM (inactive) in test [15]; > 100 µM (inactive) in [16]; 49.5 µM (inactive) in test [17]. In addition, the GI50 in test [18] is > 91 µM (inactive).

Take `O=C1CC(=O)c2c(N3CCCC3)sc(N3CCCC3)c21`: the GI50 in [1] is > 100 µM (inactive); in test [2] it was > 100 µM (inactive); in test [3], > 100 µM (inactive); in [4] it was 57.4 µM (inactive); in test [5], > 100 µM (inactive); in [6], > 100 µM (inactive). Besides, the GI50 in [8], in test [9], in test [10], in test [11], in [12] and in test [13] was > 100 µM (inactive) in each case. In addition, the GI50 in [19], in test [20], in test [14], in test [15], in [16] and in [17] was > 100 µM (inactive) each time. Moreover, the GI50 in [18] is > 100 µM (inactive).

`COC(=O)C1(C)CC2C(C)(CCC3(C)C4=CC=C5C(=CC(=O)C(O)=C5C)C4(C)CCC23C)CC1O` (stereo unspecified): the GI50 in [1] is 1.09 µM (active); in test [2], 1.72 µM (inactive); in test [3], 0.863 µM (active); in [4], 0.284 µM (active); in test [5], 0.429 µM (active); in test [6], 1.86 µM (inactive). Further, the GI50 was 0.577 µM (active) in test [7]; 1.92 µM (inactive) in [8]; 0.521 µM (active) in test [9]; 1.35 µM (inactive) in test [10]; 1.56 µM (inactive) in [11]; 1.26 µM (inactive) in test [12]. Besides, the GI50 in test [13] was 1.79 µM (inactive); in test [19], 0.203 µM (active); in test [14] it was 1.1 µM (active); in [15], 2.05 µM (inactive); in test [16] it was 1.61 µM (inactive); in [17], 1.49 µM (inactive). Besides, the GI50 in [18] is 0.851 µM (active).

As to `CC(=O)CCC1(C(=O)OCC(C)C)CCCC1=O` (stereo unspecified), the GI50 in test [1], in [2], in test [3], in test [4], in test [5] and in [6] was > 100 µM (inactive) throughout. Moreover, the GI50 in [7], in test [8], in test [9], in test [10], in test [12] and in test [13] was > 100 µM (inactive) in each case. Moreover, the GI50 in test [20], in test [14], in [15], in test [16], in [17] and in test [18] was > 100 µM (inactive) each time.

In the case of `N#Cc1c(-c2ccccc2)cc(Nc2cccc(C(F)(F)F)c2)n2c1nc1ccccc12`, the GI50 in [1] is 0.611 µM (active); in test [2] it was 0.733 µM (active); in test [3], 1.29 µM (inactive); in test [5], 1.99 µM (inactive); in test [6], 1.77 µM (inactive); in test [7], 1.71 µM (inactive). Also, the GI50 in test [8] was 1.82 µM (inactive); in test [9], 9.12 µM (inactive); in test [13] it was 0.766 µM (active); in [20] it was 1.4 µM (inactive); in test [14], 2.22 µM (inactive); in test [15], 0.336 µM (active). The GI50 in test [16] is 0.912 µM (active); in test [17], 0.519 µM (active); in test [18], 3.82 µM (inactive).

In the case of `O=C1NC(c2c(Cl)cccc2Cl)Nc2ccccc21` (stereo unspecified), the GI50 in test [1] was 36.3 µM (inactive); in test [2], > 100 µM (inactive); in test [3], 54.5 µM (inactive); in [5], 70 µM (inactive); in test [6], 81.7 µM (inactive); in test [7], 30.5 µM (inactive). For the same compound, the GI50 was 2.89 µM (inactive) in test [8]; 73.3 µM (inactive) in test [9]; > 100 µM (inactive) in [10]; 34.8 µM (inactive) in test [12]; 26.5 µM (inactive) in test [13]; 21.5 µM (inactive) in [20]. Besides, the GI50 was 47.1 µM (inactive) in [14], > 100 µM (inactive) in test [16], 65.6 µM (inactive) in [17] and 60 µM (inactive) in [18].

For `O=C1C=Cc2cscc21`, the GI50 in test [1] is 37.9 µM (inactive); in test [2], > 100 µM (inactive); in [3] it was 92.5 µM (inactive); in [4], 31.9 µM (inactive); in [5], 16.6 µM (inactive); in test [6], > 100 µM (inactive). Also, the GI50 in [7] was 31.8 µM (inactive); in test [8], 42.5 µM (inactive); in [9], 69.8 µM (inactive); in test [10], 26.2 µM (inactive); in test [12] it was 26.4 µM (inactive); in [13] it was > 100 µM (inactive). For the same compound, the GI50 is > 100 µM (inactive) in test [14]; 21.2 µM (inactive) in test [15]; 81.3 µM (inactive) in test [16]; 28.1 µM (inactive) in [17]; 53.7 µM (inactive) in test [18].

Regarding `CC(C(=O)c1ccncc1)c1ccccn1` (stereo unspecified), the GI50 in test [1], in test [2], in test [3], in test [4], in [5] and in test [6] was > 100 µM (inactive) each time. Besides, the GI50 in test [7], in test [9], in test [10], in test [11], in test [12] and in test [13] was > 100 µM (inactive) in each case. Also, the GI50 in test [20], in [15], in test [16], in [17] and in test [18] was > 100 µM (inactive) each time.

On to `COc1cc([N+](=O)[O-])c(OC)c2c(Nc3ccc(S(=O)(=O)O)c4cc(S(=O)(=O)O)cc(S(=O)(=O)O)c34)cc(C)nc12`, for which the GI50 in [1], in [2], in test [3], in [5], in [6] and in test [7] was > 100 µM (inactive) each time. The GI50 in test [8], in test [9], in test [10], in test [12], in [20] and in [14] was > 100 µM (inactive) in each case. Also, the GI50 in test [15], in test [17] and in test [18] was > 100 µM (inactive) each time.
